Assay results as given in ChEMBL document CHEMBL1201862, “PubChem BioAssay data set” (2004).
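48-hour exposure; five concentrations; linearly interpolated endpoints. The concentration for 50% growth inhibition is given as GI50.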 The source made the active and inactive calls. Cut-off read from the data, not from the text of the source: active = GI50 up to about 1.1 µM and inactive = higher.

Experiments:
Test in all cases: NCI tumour cell line growth inhibition, 48 h
[1] = system: HT-29
[2] = system: DMS-273
[3] = system: SNB-19
[4] = system: NCI-H23
[5] = system: 786-0
[6] = system: SNB-78
[7] = system: SNB-75
[8] = system: IGROV-1
[9] = system: U-251
[10] = system: LOX IMVI
[11] = system: UO-31
[12] = system: SW-620
[13] = system: COLO 205
[14] = system: SF-539
[15] = system: HCT-116
[16] = system: SK-MEL-2
[17] = system: HCT-15
[18] = system: SF-268
[19] = system: XF498
[20] = system: UACC-257
[21] = system: SF-295
[22] = system: KM-20L2
[23] = system: DMS-114
[24] = system: LXFL 529
[25] = system: NCI-H460
[26] = system: TK-10
[27] = system: M19-MEL
[28] = system: SK-MEL-28
[29] = system: UACC-62
[30] = system: SK-OV-3
[31] = system: ACHN
[32] = system: M14
[33] = system: OVCAR-5
[34] = system: SN12C
[35] = system: RXF 393
[36] = system: RPMI-8226
[37] = system: SK-MEL-5
[38] = system: HOP-92
[39] = system: NCI-H226
[40] = system: DLD-1
[41] = system: RXF 631
[42] = system: K562
[43] = system: OVCAR-3
[44] = system: KM12
[45] = system: OVCAR-4
[46] = system: CAKI-1
[47] = system: A549
[48] = system: MOLT-4
[49] = system: EKVX
[50] = system: Malme-3M
[51] = system: HCC 2998
[52] = system: HL-60
[53] = system: OVCAR-8
[54] = system: HOP-62
[55] = system: NCI-H522
[56] = system: A498
[57] = system: CCRF-CEM
[58] = system: SR
[59] = system: HOP-18

Measured: GI50

Cc1c(CC/C(=N\Nc2ccc([N+](=O)[O-])cc2[N+](=O)[O-])c2ccccc2)c2ccccc2n1C
inactive: [1] > 100 µM | [2] > 100 µM | [3] > 94.4 µM | [4] > 100 µM | [5] > 100 µM | [6] > 100 µM | [7] > 56.1 µM | [8] > 100 µM | [9] > 100 µM | [10] > 100 µM | [11] > 86.9 µM | [12] > 100 µM | [13] > 100 µM | [14] > 100 µM | [15] > 100 µM | [16] > 100 µM | [18] > 100 µM | [19] > 100 µM | [20] > 100 µM | [21] > 100 µM | [22] > 100 µM | [23] > 100 µM | [24] > 100 µM | [25] > 100 µM | [26] > 100 µM | [27] > 100 µM | [28] > 100 µM | [29] > 100 µM | [30] > 100 µM | [31] > 100 µM | [32] > 100 µM | [33] > 100 µM | [34] > 100 µM | [35] > 46.1 µM | [36] 20.7 µM | [37] > 100 µM | [38] 97.7 µM | [39] > 100 µM | [40] > 100 µM | [41] > 100 µM | [42] 27.4 µM | [43] > 100 µM | [44] > 100 µM | [45] > 100 µM | [46] > 100 µM | [47] > 100 µM | [48] > 43.2 µM | [49] > 100 µM | [50] > 100 µM | [51] > 100 µM | [52] > 50 µM | [53] > 100 µM | [54] > 100 µM | [55] > 100 µM | [56] > 100 µM | [57] > 44 µM
> 100 µM: [17]

Cc1cc(Br)ccc1NC1=CC(=O)C(=O)c2ccccc21
inactive: [1] 51.2 µM | [2] 31.4 µM | [3] 24.2 µM | [4] 10.9 µM | [5] 38.5 µM | [6] > 100 µM | [7] 41.1 µM | [8] 77.6 µM | [9] 26.4 µM | [10] 21.4 µM | [11] 94.6 µM | [12] 29.9 µM | [13] 31.6 µM | [14] 74.8 µM | [15] 52.7 µM | [16] 23.6 µM | [18] 47.4 µM | [19] 31.6 µM | [20] 15.9 µM | [21] 38.5 µM | [22] > 100 µM | [23] 19.8 µM | [24] 55.7 µM | [25] 27.9 µM | [26] 99.8 µM | [58] 15.5 µM | [27] 15.2 µM | [28] 45.3 µM | [29] 20 µM | [30] 49.3 µM | [31] 36.4 µM | [32] 52.1 µM | [33] 70.8 µM | [34] 60.1 µM | [35] 30.5 µM | [36] 36.9 µM | [37] 20 µM | [39] 39.8 µM | [40] > 100 µM | [42] 51.4 µM | [43] 35 µM | [44] 38.5 µM | [59] 16 µM | [45] 9.08 µM | [46] 28.1 µM | [47] 39.1 µM | [48] 39.4 µM | [49] > 100 µM | [50] 24.3 µM | [51] 62.1 µM | [52] 13.6 µM | [53] 42.2 µM | [54] > 100 µM | [55] 30.8 µM | [56] 86.7 µM | [57] 35.1 µM
55.2 µM: [17]

COC(OC)[C@@H](C)[C@H](O)[C@](C)(O)C1OC(C)(C)OC(C(C)C=C(C)C)C1C (stereo partly specified)
> 100 µM: [17]
inactive: [1] > 100 µM | [2] > 100 µM | [3] > 100 µM | [4] > 100 µM | [5] > 100 µM | [6] > 100 µM | [7] > 100 µM | [8] > 100 µM | [9] > 100 µM | [10] > 100 µM | [11] 80.7 µM | [12] > 100 µM | [13] > 100 µM | [14] > 100 µM | [15] > 100 µM | [16] > 100 µM | [18] > 100 µM | [19] > 100 µM | [20] 93.1 µM | [21] > 100 µM | [22] > 100 µM | [23] 94.6 µM | [24] > 100 µM | [25] > 100 µM | [26] > 100 µM | [58] 73.3 µM | [27] > 100 µM | [28] > 100 µM | [29] > 100 µM | [30] > 100 µM | [31] > 100 µM | [32] > 100 µM | [33] > 100 µM | [34] > 100 µM | [35] 66.4 µM | [36] 48.6 µM | [37] 64.9 µM | [38] > 100 µM | [39] > 100 µM | [40] > 100 µM | [42] 77.1 µM | [43] > 100 µM | [44] > 100 µM | [59] > 100 µM | [45] > 100 µM | [46] > 100 µM | [47] > 100 µM | [48] 72.4 µM | [49] > 100 µM | [50] > 100 µM | [52] 29.9 µM | [53] > 100 µM | [54] > 100 µM | [55] > 100 µM | [56] > 100 µM | [57] > 100 µM
